Among the data in ChEMBL document CHEMBL3860108, “Substituent Effects on Drug-Receptor H-bond Interactions: Correlations Useful for the Design of Kinase Inhibitors” (J Med Chem, 2016) are IC50 values, retold here.

Assay [1] addresses T1, Serine/threonine-protein kinase TNNI3K (Homo sapiens, UniProt Q59H18).
T1 sequence (Q59H18 whole entry): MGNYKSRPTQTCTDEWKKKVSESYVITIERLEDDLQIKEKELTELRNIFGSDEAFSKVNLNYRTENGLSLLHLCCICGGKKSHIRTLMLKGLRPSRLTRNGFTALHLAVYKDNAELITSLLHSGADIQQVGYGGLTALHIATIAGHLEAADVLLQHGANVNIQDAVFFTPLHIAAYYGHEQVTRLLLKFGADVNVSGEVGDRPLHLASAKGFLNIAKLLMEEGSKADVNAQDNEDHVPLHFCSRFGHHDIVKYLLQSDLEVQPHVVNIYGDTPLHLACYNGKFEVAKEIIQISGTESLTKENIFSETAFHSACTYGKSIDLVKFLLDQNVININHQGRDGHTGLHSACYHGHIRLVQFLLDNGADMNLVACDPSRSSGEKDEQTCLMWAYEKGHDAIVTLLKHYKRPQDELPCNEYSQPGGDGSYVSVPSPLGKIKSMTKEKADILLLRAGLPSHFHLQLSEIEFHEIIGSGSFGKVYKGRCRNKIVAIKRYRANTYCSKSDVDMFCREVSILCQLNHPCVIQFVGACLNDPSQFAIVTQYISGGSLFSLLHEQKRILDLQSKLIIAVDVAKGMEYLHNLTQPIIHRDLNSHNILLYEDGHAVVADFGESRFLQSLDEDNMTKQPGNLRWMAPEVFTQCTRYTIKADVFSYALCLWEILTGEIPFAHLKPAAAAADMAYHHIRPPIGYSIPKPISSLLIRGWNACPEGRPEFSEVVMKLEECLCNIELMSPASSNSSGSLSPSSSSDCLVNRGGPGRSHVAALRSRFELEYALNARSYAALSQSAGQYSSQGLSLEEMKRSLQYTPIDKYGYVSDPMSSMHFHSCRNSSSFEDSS
As to the kind of experiment: Displacement of 5-({[2-({[3-({4-[(5-hydroxy-2-methylphenyl)amino]-2-pyrimidinyl}amino)phenyl]carbonyl}amino)-ethyl]amino}carbonyl)-2-(6-hydroxy-3-oxo-3H-xanthen-9-yl)benzoic acid from His6-MBP-TEV-full length human TNNI3K expressed in Baculovirus expression system after 60 mins by fluorescence polarization assay. (Polarisation of emitted light reports the rotation of a fluorescent probe.)

Assay [2] addresses Serine/threonine-protein kinase B-raf (Homo sapiens, UniProt P15056, V600E). As to the kind of experiment: Inhibition of His6-tagged full length BRAF V600E mutant (2 to 766 residues) (unknown origin) expressed in Baculovirus expression system by BRAMA method.

A value given as a limit tells only on which side of the number the result lay.

Serine/threonine-protein kinase B-raf, sequence (P15056 2-766 V600E limits assumed): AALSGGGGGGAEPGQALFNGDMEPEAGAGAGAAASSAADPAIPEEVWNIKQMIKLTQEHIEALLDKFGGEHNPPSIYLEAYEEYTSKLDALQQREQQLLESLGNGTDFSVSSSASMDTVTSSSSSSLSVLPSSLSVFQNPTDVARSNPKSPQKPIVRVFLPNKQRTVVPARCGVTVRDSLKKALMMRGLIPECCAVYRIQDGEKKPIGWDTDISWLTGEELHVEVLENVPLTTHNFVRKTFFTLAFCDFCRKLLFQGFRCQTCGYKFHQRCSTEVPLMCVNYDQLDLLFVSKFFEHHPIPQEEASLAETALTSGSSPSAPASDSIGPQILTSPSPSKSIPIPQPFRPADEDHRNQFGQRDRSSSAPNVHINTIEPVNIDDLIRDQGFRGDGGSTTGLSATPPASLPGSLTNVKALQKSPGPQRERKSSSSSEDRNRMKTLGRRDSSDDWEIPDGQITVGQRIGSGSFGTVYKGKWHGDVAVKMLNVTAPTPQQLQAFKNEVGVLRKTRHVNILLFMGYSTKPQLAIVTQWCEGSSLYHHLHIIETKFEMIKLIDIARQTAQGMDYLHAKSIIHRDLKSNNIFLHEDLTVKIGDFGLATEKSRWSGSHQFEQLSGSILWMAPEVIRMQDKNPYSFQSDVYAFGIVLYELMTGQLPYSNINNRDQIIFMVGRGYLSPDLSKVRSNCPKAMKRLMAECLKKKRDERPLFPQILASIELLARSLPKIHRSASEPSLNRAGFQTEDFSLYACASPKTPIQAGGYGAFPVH

Compound `CNS(=O)(=O)c1ccc(N2CCC[C@@H]2C(F)(F)F)c(Nc2cc(Nc3ccc(Cl)cc3)ncn2)c1` yielded a 50% inhibitory concentration (IC50) in assay [1] of 63 nM.
The same measure, in the same setting: next, `CNS(=O)(=O)c1ccc(N2CCCC(F)(F)C2)c(Nc2cc(Nc3ccc(Cl)cc3)ncn2)c1`: 40 nM.
Still for that read-out and setting: next, `CCOc1ccc(S(=O)(=O)NC)cc1Nc1cc(Nc2ccc(Cl)cc2)ncn1`: 50 nM.
Take `CCNc1ccc(S(=O)(=O)NC)cc1Nc1cc(Nc2ccc(Cl)cc2)ncn1`: the 50% inhibitory concentration (IC50) in assay [1] worked out at 3200 nM.
Take `CNS(=O)(=O)c1ccc(N(C)C)c(Nc2ncnc(Nc3ccc(Cl)cc3)n2)c1`: in assay [1], the IC50 was 10 nM.
As for `CNS(=O)(=O)c1ccc(OC(F)(F)F)c(Nc2cc(Nc3ccc(Cl)cc3)ncn2)c1`, in assay [1], the IC50 turned out to be 32 nM.
Same read-out and setting: for `CCOc1ccc(S(=O)(=O)NC)cc1Nc1ncnc2[nH]ccc12` the value was 32 nM; for `CNS(=O)(=O)c1ccc(OC(F)(F)F)c(Nc2ncnc3[nH]ccc23)c1`, 50 nM.
On the same count and under the same terms, next, `CNS(=O)(=O)c1ccc(O)c(Nc2ncnc3[nH]ccc23)c1`: 40 nM.
In assay [1], `CNS(=O)(=O)c1ccc(N(C)C)c(Nc2ncnc3[nH]cc(-c4ccco4)c23)c1` came in with a half-inhibitory concentration (IC50) of less than 10 nM.
The same measure, in the same setting: for `CNS(=O)(=O)c1ccc(N2C(C)CCC2C)c(Nc2cc(Nc3ccc(Cl)cc3)ncn2)c1` (stereo not given) the value was 80 nM; for `CNS(=O)(=O)c1ccc(N2CCC(F)(F)C2)c(Nc2ncnc3[nH]ccc23)c1`, 130 nM; for `CNS(=O)(=O)c1ccc(C)c(Nc2cc(Nc3ccc(Cl)cc3)ncn2)c1`, 160 nM.
Still for that read-out and setting: for `CNc1ccc(S(=O)(=O)NC)cc1Nc1cc(Nc2ccc(Cl)cc2)ncn1` the value was 2500 nM; for `CNS(=O)(=O)c1ccc(F)c(Nc2ncnc3[nH]ccc23)c1`, 250 nM.
Still for that read-out and setting: for `CNS(=O)(=O)c1ccc(N(C)C)c(Nc2ncnc3ncccc23)c1` the value was 5000 nM.
In turn, `CNS(=O)(=O)c1cccc(Nc2cc(Nc3ccc(Cl)cc3)ncn2)c1` displayed an IC50 in assay [1] of 80 nM.
Same read-out and setting: for `CNS(=O)(=O)c1ccc(N(C)C)c(Nc2ncnc3[nH]cnc23)c1` the value was 16 nM.
On the same count and under the same terms, for `CCNc1ccc(S(=O)(=O)NC)cc1Nc1ncnc2[nH]ccc12` the value was 2500 nM.
With `CNS(=O)(=O)c1ccc(N2CCCC2C)c(Nc2cc(Nc3ccc(Cl)cc3)ncn2)c1` (stereo not given), the IC50 in assay [1] amounted to 250 nM.
Still for that read-out and setting: for `CNS(=O)(=O)c1ccc(N(C)CC(F)(F)F)c(Nc2ncnc3[nH]ccc23)c1` the value was 10 nM; for `CNS(=O)(=O)c1ccc(N2CCCCC2)c(Nc2ncnc3[nH]ccc23)c1`, 13 nM.
The same measure, in the same setting: next, `CNS(=O)(=O)c1ccc(Cl)c(Nc2cc(Nc3ccc(Cl)cc3)ncn2)c1`: 130 nM.
The same measure, in the same setting: next, `CNS(=O)(=O)c1ccc(N)c(Nc2cc(Nc3ccc(Cl)cc3)ncn2)c1`: 800 nM; `CNS(=O)(=O)c1ccc(N2C(C)CCC2C)c(Nc2ncnc3[nH]ccc23)c1` (stereo not given): 20 nM.
For `CNS(=O)(=O)c1ccc(N2CCCC2)c(Nc2cc(Nc3ccc(Cl)cc3)ncn2)c1`, the concentration for half-maximal inhibition (IC50) in assay [1] was 1300 nM.
The same measure, in the same setting: for `CNS(=O)(=O)c1ccc(OCC(F)(F)F)c(Nc2ncnc3[nH]ccc23)c1` the value was 16 nM; for `CCCNc1ccc(S(=O)(=O)NC)cc1Nc1cc(Nc2ccc(Cl)cc2)ncn1`, 1600 nM; for `CCN(C)c1ccc(S(=O)(=O)NC)cc1Nc1ncnc2[nH]ccc12`, 32 nM.
With `CNS(=O)(=O)c1ccc(N(C)C)c(Nc2ncnc3ccc([N+](=O)[O-])cc23)c1`, the values for the IC50 in assay [1] and in assay [2] were 2500 nM and 6300 nM, respectively.
`CNS(=O)(=O)c1ccc(SC)c(Nc2ncnc3[nH]ccc23)c1`: the 50% inhibitory concentration (IC50) in assay [1] stood at 130 nM.
In the case of `CNS(=O)(=O)c1ccc(N2CCCC2)c(Nc2ncnc3[nH]ccc23)c1`, the IC50 in assay [1] is 320 nM.
In turn, `CNS(=O)(=O)c1ccc(N(C)C)c(Nc2cc(Nc3ccc(Cl)cc3)ncn2)c1` came in with an IC50 in assay [1] of 80 nM.
The same measure, in the same setting: next, `CNS(=O)(=O)c1ccc(OC)c(Nc2cc(Nc3ccc(Cl)cc3)ncn2)c1`: 50 nM; `CNS(=O)(=O)c1ccc(OC)c(Nc2ncnc3[nH]ccc23)c1`: 100 nM; `CNS(=O)(=O)c1ccc(N(C)C)c(Nc2ncnc3[nH]c4ccccc4c23)c1`: 50 nM.
`CNS(=O)(=O)c1ccc(N(C)CC(F)(F)F)c(Nc2cc(Nc3ccc(Cl)cc3)ncn2)c1`: the 50% inhibitory concentration (IC50) in assay [1] was 40 nM.
For `CCN(C)c1ccc(S(=O)(=O)NC)cc1Nc1cc(Nc2ccc(Cl)cc2)ncn1`, the IC50 in assay [1] is 63 nM. Against the preceding compound, the IC50 is about 1.6-fold higher.
As for `CCCNc1ccc(S(=O)(=O)NC)cc1Nc1ncnc2[nH]ccc12`, the 50% inhibitory concentration (IC50) in assay [1] stood at 2500 nM.
The same measure, in the same setting: next, `CNS(=O)(=O)c1ccc(N2CCC(F)(F)C2)c(Nc2cc(Nc3ccc(Cl)cc3)ncn2)c1`: 1000 nM; `CNS(=O)(=O)c1ccc(N2CCCC(F)(F)C2)c(Nc2ncnc3[nH]ccc23)c1`: less than 10 nM.
On the same count and under the same terms, for `CNS(=O)(=O)c1ccc(F)c(Nc2cc(Nc3ccc(Cl)cc3)ncn2)c1` the value was 200 nM.
On the same count and under the same terms, next, `CNS(=O)(=O)c1ccc(OCC(F)(F)F)c(Nc2cc(Nc3ccc(Cl)cc3)ncn2)c1`: 25 nM; `CNS(=O)(=O)c1ccc(-c2ccccc2)c(Nc2ncnc3[nH]ccc23)c1`: 200 nM.
In the case of `CNS(=O)(=O)c1ccc(N(C)C)c(Nc2ncnc3ccc(Cl)cc23)c1`, the IC50 in assay [1] and in assay [2] was 400 nM each time.
As for `CNS(=O)(=O)c1ccc(O)c(Nc2cc(Nc3ccc(Cl)cc3)ncn2)c1`, the IC50 in assay [1] came out at 160 nM. This counts as sub-micromolar.
The same measure, in the same setting: for `CNS(=O)(=O)c1ccc(SC)c(Nc2cc(Nc3ccc(Cl)cc3)ncn2)c1` the value was 400 nM.
On the same count and under the same terms, next, `CNS(=O)(=O)c1ccc(N2CCCC2C)c(Nc2ncnc3[nH]ccc23)c1` (stereo not given): 130 nM.

What is called IC50 is the point on the concentration scale where inhibition reaches its midpoint.
